Measured values reported in PubChem BioAssay (NCI).
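How tested: cells in 96-well plates exposed to compound for 48 hours at five concentrations. TGI marks complete inhibition of growth.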

Legend:
Test in all cases: NCI tumour cell line growth inhibition, 48 h
A498 renal = test system: A498 renal
BT-549 breast = test system: BT-549 breast
CAKI-1 renal = test system: CAKI-1 renal
CCRF-CEM leukemia = test system: CCRF-CEM leukemia
COLO 205 colon = test system: COLO 205 colon
DU-145 prostate = test system: DU-145 prostate
HCC-2998 colon = test system: HCC-2998 colon
HCT-116 colon = test system: HCT-116 colon
HCT-15 colon = test system: HCT-15 colon
HOP-62 NSCLC = test system: HOP-62 NSCLC
HOP-92 NSCLC = test system: HOP-92 NSCLC
HS 578T breast = test system: HS 578T breast
HT29 colon = test system: HT29 colon
IGROV1 ovarian = test system: IGROV1 ovarian
K-562 leukemia = test system: K-562 leukemia
KM12 colon = test system: KM12 colon
LOX IMVI melanoma = test system: LOX IMVI melanoma
M14 melanoma = test system: M14 melanoma
MALME-3M melanoma = test system: MALME-3M melanoma
MCF7 breast = test system: MCF7 breast
MDA-MB-231 breast = test system: MDA-MB-231 breast
MDA-MB-435 = test system: MDA-MB-435
MDA-N = test system: MDA-N
MOLT-4 leukemia = test system: MOLT-4 leukemia
NCI-H226 lung = test system: NCI-H226 lung
NCI-H23 lung = test system: NCI-H23 lung
NCI-H460 lung = test system: NCI-H460 lung
NCI/ADR-RES ovarian = test system: NCI/ADR-RES ovarian
OVCAR-3 ovarian = test system: OVCAR-3 ovarian
OVCAR-4 ovarian = test system: OVCAR-4 ovarian
OVCAR-5 ovarian = test system: OVCAR-5 ovarian
OVCAR-8 ovarian = test system: OVCAR-8 ovarian
PC-3 prostate = test system: PC-3 prostate
RPMI-8226 leukemia = test system: RPMI-8226 leukemia
RXF 393 renal = test system: RXF 393 renal
SF-295 CNS = test system: SF-295 CNS
SK-MEL-2 melanoma = test system: SK-MEL-2 melanoma
SK-MEL-28 melanoma = test system: SK-MEL-28 melanoma
SK-MEL-5 melanoma = test system: SK-MEL-5 melanoma
SK-OV-3 ovarian = test system: SK-OV-3 ovarian
SN12C renal = test system: SN12C renal
SNB-19 CNS = test system: SNB-19 CNS
SNB-75 CNS = test system: SNB-75 CNS
SR leukemia = test system: SR leukemia
SW-620 colon = test system: SW-620 colon
T-47D breast = test system: T-47D breast
TK-10 renal = test system: TK-10 renal
U251 CNS = test system: U251 CNS
UACC-257 melanoma = test system: UACC-257 melanoma
UACC-62 melanoma = test system: UACC-62 melanoma
UO-31 renal = test system: UO-31 renal
786-0 renal = test system: 786-0 renal
A549 NSCLC = test system: A549 NSCLC
ACHN renal = test system: ACHN renal
EKVX NSCLC = test system: EKVX NSCLC
HL-60(TB) leukemia = test system: HL-60(TB) leukemia
NCI-H522 lung = test system: NCI-H522 lung
SF-268 CNS = test system: SF-268 CNS
SF-539 CNS = test system: SF-539 CNS

Measured: TGI

Nc1nccc2c1ncn2[C@H]1C[C@H](O)[C@@H](CO)O1
not listed: 786-0 renal | A549 NSCLC | ACHN renal | EKVX NSCLC | HL-60(TB) leukemia | NCI-H522 lung | SF-268 CNS | SF-539 CNS
> 100 µM: all other assays above

CCOC(=O)CCc1cccc2c1oc1c(CCNC(=O)OCC3c4ccccc4-c4ccccc43)cccc12
42.1 µM: SNB-75 CNS
16.5 µM: HS 578T breast
45.4 µM: CAKI-1 renal
58.4 µM: MALME-3M melanoma
70.6 µM: SNB-19 CNS
52.3 µM: HOP-62 NSCLC
63.6 µM: UACC-62 melanoma
68.4 µM: BT-549 breast
85.6 µM: HOP-92 NSCLC
81.1 µM: T-47D breast
70.3 µM: SF-268 CNS
not listed: HT29 colon | RXF 393 renal | SF-539 CNS
> 100 µM: all other assays above

COc1cc(C=C(c2ccc(N(C)C)cc2)c2ccc(N(C)C)cc2)c2ccccc2c1OC
74 µM: OVCAR-3 ovarian
40.7 µM: MDA-N
not listed: A498 renal | SW-620 colon | SF-539 CNS
> 100 µM: all other assays above

O=C1C=CC(O)(C#CCO)C=C1
62.2 µM: CCRF-CEM leukemia
26.9 µM: MDA-MB-435 | OVCAR-5 ovarian
22 µM: RPMI-8226 leukemia
28.1 µM: NCI-H226 lung
31.6 µM: DU-145 prostate
> 42 µM: 786-0 renal
30.8 µM: SF-539 CNS
5.8 µM: HOP-92 NSCLC
> 76.5 µM: HS 578T breast
34.5 µM: NCI-H23 lung
23.8 µM: U251 CNS
26.6 µM: ACHN renal
26.7 µM: BT-549 breast
41.6 µM: T-47D breast
40.3 µM: EKVX NSCLC
15.8 µM: HL-60(TB) leukemia
31 µM: OVCAR-3 ovarian
32.3 µM: UO-31 renal
44 µM: M14 melanoma
29.3 µM: UACC-62 melanoma
25.9 µM: OVCAR-4 ovarian
39.7 µM: OVCAR-8 ovarian
33.7 µM: MDA-MB-231 breast
33.2 µM: SK-MEL-2 melanoma
15.3 µM: SW-620 colon
> 60.2 µM: A549 NSCLC
31.3 µM: HCC-2998 colon
34.1 µM: SF-268 CNS
48.8 µM: NCI-H460 lung
30.3 µM: NCI/ADR-RES ovarian
30.6 µM: SN12C renal
32.6 µM: KM12 colon
31.8 µM: PC-3 prostate
46 µM: A498 renal
25.5 µM: SK-MEL-28 melanoma
> 50.2 µM: COLO 205 colon
10.1 µM: HCT-15 colon
23.3 µM: LOX IMVI melanoma
27.7 µM: UACC-257 melanoma
25.6 µM: IGROV1 ovarian
4.16 µM: NCI-H522 lung
23 µM: MDA-N
29.7 µM: HT29 colon
18.5 µM: MCF7 breast
71.7 µM: HOP-62 NSCLC
10.8 µM: CAKI-1 renal | RXF 393 renal
37.4 µM: SNB-75 CNS
> 53.9 µM: HCT-116 colon
> 56.8 µM: SNB-19 CNS
25.8 µM: TK-10 renal
not listed: MALME-3M melanoma
> 100 µM: all other assays above

COC(=O)[C@]12CC[C@H]3CN(C(=O)OCc4ccccc4)[C@H]([C@H]31)[C@H](c1ccccc1)N2
58.3 µM: SK-MEL-5 melanoma
not listed: MALME-3M melanoma
> 100 µM: all other assays above
